Target: T1, TLR7 (Homo sapiens, UniProt Q9NYK1)
T1 sequence (Q9NYK1 27-1049): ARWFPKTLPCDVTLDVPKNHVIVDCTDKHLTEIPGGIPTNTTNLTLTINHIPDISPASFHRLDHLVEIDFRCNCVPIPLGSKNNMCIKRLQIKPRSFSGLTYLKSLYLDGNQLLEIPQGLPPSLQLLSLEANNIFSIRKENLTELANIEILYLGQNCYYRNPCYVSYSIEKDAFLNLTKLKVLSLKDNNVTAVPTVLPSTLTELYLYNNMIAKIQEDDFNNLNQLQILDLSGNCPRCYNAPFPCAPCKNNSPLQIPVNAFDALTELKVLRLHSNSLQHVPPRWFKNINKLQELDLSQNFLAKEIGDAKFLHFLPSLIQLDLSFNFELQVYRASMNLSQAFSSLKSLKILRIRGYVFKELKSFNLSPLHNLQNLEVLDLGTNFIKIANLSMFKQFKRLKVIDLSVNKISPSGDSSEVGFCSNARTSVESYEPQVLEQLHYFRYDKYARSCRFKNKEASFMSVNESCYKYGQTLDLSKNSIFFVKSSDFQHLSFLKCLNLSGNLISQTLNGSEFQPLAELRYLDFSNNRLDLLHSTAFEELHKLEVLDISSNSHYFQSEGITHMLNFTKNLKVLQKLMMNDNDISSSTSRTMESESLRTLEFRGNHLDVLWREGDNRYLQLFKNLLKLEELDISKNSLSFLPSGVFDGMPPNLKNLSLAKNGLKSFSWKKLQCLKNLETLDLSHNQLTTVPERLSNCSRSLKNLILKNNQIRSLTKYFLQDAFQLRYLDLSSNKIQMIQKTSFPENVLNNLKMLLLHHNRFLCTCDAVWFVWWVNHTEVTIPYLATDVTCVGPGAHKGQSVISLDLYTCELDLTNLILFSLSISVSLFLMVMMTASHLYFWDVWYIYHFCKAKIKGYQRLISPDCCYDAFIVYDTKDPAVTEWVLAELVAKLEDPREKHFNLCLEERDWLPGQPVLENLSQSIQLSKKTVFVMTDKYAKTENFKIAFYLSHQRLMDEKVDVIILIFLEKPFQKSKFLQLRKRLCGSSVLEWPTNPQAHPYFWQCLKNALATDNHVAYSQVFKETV
Assay: TLR7 agonist potency compared with Aldara
Details: more potent than Aldara

- TLR7 agonist potency relative to Aldara: about 100 times
Compound: Cc1ccc2c(c1)nc(N)c1ncc(CCc3ccc(OCCC(C)C)cc3C)cc12 [compound of formula (II)]

From patent US20190021989A1, “GALENIC FORMULATION COMPRISING A TOPICAL DRUG” (NOVARTIS AG, priority 2015, published 2019)
